{"source": "patent US7541339B2", "about": "“Par-2-activating peptide derivative and pharmaceutical composition using the same” (The University of Edinburgh, priority 2002, dated 2009)", "molecular_target": "T1, human PAR-2 (Homo sapiens, UniProt P55085)", "T1 construct": "Human colorectal adenocarcinoma cell line, HCT-15, expressing endogenous PAR-2 at high levels; endogenous in cells; host or cells: HCT-15 (human colorectal adenocarcinoma)", "T1 sequence (P55085 26-397)": "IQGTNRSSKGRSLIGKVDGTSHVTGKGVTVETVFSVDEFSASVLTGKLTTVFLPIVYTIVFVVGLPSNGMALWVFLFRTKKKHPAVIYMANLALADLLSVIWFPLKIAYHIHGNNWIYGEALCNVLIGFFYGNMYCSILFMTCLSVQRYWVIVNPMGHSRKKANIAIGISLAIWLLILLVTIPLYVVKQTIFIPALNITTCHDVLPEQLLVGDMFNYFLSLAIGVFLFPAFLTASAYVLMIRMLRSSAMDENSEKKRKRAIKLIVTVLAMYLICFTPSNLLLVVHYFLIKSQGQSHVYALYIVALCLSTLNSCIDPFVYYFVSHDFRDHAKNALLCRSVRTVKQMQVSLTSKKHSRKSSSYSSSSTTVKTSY", "assay": "PAR-2 activation potency: intracellular calcium mobilization assay (modified Hawthorne's method) in HCT-15 cells", "assay_type": "cell-based", "excerpt": "PAR-2 activation with the peptide derivative represented by the general formula (I) in accordance with the invention can be tested by various known methods. For example, the Hollenberg's method (Hollenberg, M. D., et al., Can. J. Physiol. Pharmacol., 75, 832-841 (1997)), the Kawabata's method (Kawabata, A., et al., J. Pharmacol. Exp. Ther., 288, 358-370 (1999)) and the Hawthorne's method (Howthorne et al., A High-Throughput Microtiter Plate-Based Calcium Assay for the Study of Protease-Activated Receptor 2 Activation, Analytical Biochemistry 290, 378-379 (2001)) may be used for the test.\nThe inventors tested the PAR-2 activation potency according to the modified Hawthorne's method. In brief, that is the assay of the calcium mobilization in cells endogenously expressing human PAR-2. In this assay, cells were loaded with Fluorescent Ca2+ indicator dye in presence of Probenecid, an inhibitor of anion exchange transporter, and stimulated with agonists. The agonist-mediated intracellular calcium mobilization was measured using multiwell plate reader.\nHuman colorectal adenocarcinoma cell line, HCT-15, expressing endogenous PAR-2 at high levels were seeded in 96-well black wall clear bottom plates and subconfluent cells were loaded with Fluorescent Ca2+ indicator dye (Calcium Plus Assay Reagent, Molecular Devices) in serum free medium (RPMI) containing 2.5 mM Probenecid and incubated for 1 hr at 37 C. Then cells were stimulated with various concentrations of test compounds and fluorescent change was determined at wave length of 485 nm for excitation and 525 nm for emission (Cutoff 515 nm) using multiwell scanning fluorometer (FlexStation, Molecular Devices).\nSLIGKV-OH (SEQ ID NO: 2) as a known PAR-2 activation peptide was used as a comparative compound, and the results are shown below in Table 1.", "note": "pEC50: −log10 of the molar value. Like-named read-outs stand apart in the source and are kept apart here. Peptide text beside a SMILES is read from it. * marks the point of attachment. 2Furoyl = O=C(c1ccco1)*", "data": [{"compound": "H-SLIGKV-OH [SLIGKV-OH, reference compound]", "values": [{"measurement": "pEC50", "setting": "HCT-15 cells expressing endogenous PAR-2, fluorescent Ca2+ indicator dye, 2.5 mM Probenecid, read-out: Agonist Activity (EC50)", "value": 4.64}]}, {"compound": "CC[C@H](C)[C@H](NC(=O)[C@H](CC(C)C)NC(=O)c1ccco1)C(=O)NCC(=O)N[C@@H](CCCCN)C(=O)N[C@H](C(N)=O)C(C)C", "note": "[Example 16] (2Furoyl-LIGKV-NH2; C-terminus assumed)", "values": [{"measurement": "pEC50", "value": 6.49}]}, {"compound": "CC[C@H](C)[C@H](NC(=O)[C@H](CC(C)C)NC(=O)c1ccco1)C(=O)NCC(=O)N[C@@H](CCCCN)C(=O)N[C@H](C(=O)O)C(C)C", "note": "[Example 6] (2Furoyl-LIGKV-OH; C-terminus assumed)", "values": [{"measurement": "pEC50", "value": 5.77}]}, {"compound": "CC[C@H](C)[C@H](NC(=O)[C@H](CC(C)C)NC(=O)c1ccco1)C(=O)NCC(=O)N[C@@H](CCCNC(=N)N)C(=O)N[C@@H](CC(C)C)C(=O)O", "note": "[Example 18]", "values": [{"measurement": "pEC50", "value": 5.92}]}]}
